Data as given in the CheMixHub ionic liquid set.
± gives the uncertainty stated by the source.

Test: xn = mol fraction of the nth substance listed

CCC(=O)CC + CCCC[n+]1ccn(C)c1.F[P-](F)(F)(F)(F)F
298.15 K, 101.3 kPa
Conditions	viscosity [mPa·s]
x1 = 0.1927	81.4 ± 3.9
x1 = 0.3014	42.7 ± 1.3
x1 = 0.5009	13.36 ± 0.34
x1 = 0.652	5.36 ± 0.14

CCCCCO + CCCC[n+]1ccn(C)c1.N#C[S-]
Conditions	viscosity [mPa·s]
298.15 K, 101 kPa, x1 = 1	3.37 ± 0.01

CCCCCO + CCCC[n+]1ccn(C)c1.O=S(=O)([N-]S(=O)(=O)C(F)(F)F)C(F)(F)F
298 K, 100 kPa
Conditions	electrical conductivity [S/m]	viscosity [mPa·s]
x2 = 0	–	3.486 ± 0.038
x2 = 0.5988	–	20.14 ± 0.4
x2 = 0.6	0.5605 ± 0.0056	–
x2 = 0.6994	–	25.03 ± 0.53
x2 = 0.7	0.526 ± 0.0053	–
x2 = 0.8	0.487 ± 0.0049	–
x2 = 0.8014	–	31.59 ± 0.72
x2 = 0.9	0.4445 ± 0.0044	–
x2 = 0.9023	–	39 ± 0.95

OCCO + CCCC[n+]1ccn(C)c1.O=S(=O)([N-]S(=O)(=O)C(F)(F)F)C(F)(F)F
100 kPa
Conditions	viscosity [mPa·s]
293.15 K, x2 = 0.2002	34.4 ± 3.5
293.15 K, x2 = 0.4015	41.6 ± 4.3
298.15 K, x2 = 0.2002	27.2 ± 2.8
308.15 K, x2 = 0.2997	18.6 ± 1.9
308.15 K, x2 = 0.7003	21.8 ± 2.2
313.15 K, x2 = 0.2997	15.6 ± 1.6
318.15 K, x2 = 0.2997	13.3 ± 1.4
318.15 K, x2 = 0.7003	15.6 ± 1.6
323.15 K, x2 = 0.2997	11.5 ± 1.2
323.15 K, x2 = 0.7993	14.8 ± 1.5
323.15 K, x2 = 0.9	17 ± 1.7
328.15 K, x2 = 0.4015	10.4 ± 1.1
328.15 K, x2 = 0.6007	11.3 ± 1.2
328.15 K, x2 = 0.9	14.7 ± 1.5
333.15 K, x2 = 0.2002	8.11 ± 0.83
333.15 K, x2 = 0.7993	11.3 ± 1.2
338.15 K, x2 = 0.7993	10 ± 1

OCCO + CCCC[n+]1ccn(C)c1.O=S(=O)([O-])C(F)(F)F
Conditions	viscosity [mPa·s]
303.15 K, 100 kPa, x2 = 0	13.49 ± 0.55
